Data reported in ChEMBL document CHEMBL2406973, “Synthesis of novel diarylamino-1,3,5-triazine derivatives as FAK inhibitors with anti-angiogenic activity” (Bioorg Med Chem Lett, 2013).

Tests used:
HUVEC = experiment: Antiangiogenic activity in HUVEC assessed as inhibition of VEGF-stimulated proliferation after 72 hrs by WST-1 assay; assay type: functional, cell-based; conditions: Homo sapiens
Focal adhesion kinase 1 = Focal adhesion kinase 1 (Homo sapiens, UniProt Q05397); experiment: Inhibition of pre-activated recombinant full length FAK (unknown origin) using ULight labeled poly(Glu/Tyr) as substrate after 1.6 hrs by TR-FRET assay
Sequence of Focal adhesion kinase 1 (Q05397 whole entry): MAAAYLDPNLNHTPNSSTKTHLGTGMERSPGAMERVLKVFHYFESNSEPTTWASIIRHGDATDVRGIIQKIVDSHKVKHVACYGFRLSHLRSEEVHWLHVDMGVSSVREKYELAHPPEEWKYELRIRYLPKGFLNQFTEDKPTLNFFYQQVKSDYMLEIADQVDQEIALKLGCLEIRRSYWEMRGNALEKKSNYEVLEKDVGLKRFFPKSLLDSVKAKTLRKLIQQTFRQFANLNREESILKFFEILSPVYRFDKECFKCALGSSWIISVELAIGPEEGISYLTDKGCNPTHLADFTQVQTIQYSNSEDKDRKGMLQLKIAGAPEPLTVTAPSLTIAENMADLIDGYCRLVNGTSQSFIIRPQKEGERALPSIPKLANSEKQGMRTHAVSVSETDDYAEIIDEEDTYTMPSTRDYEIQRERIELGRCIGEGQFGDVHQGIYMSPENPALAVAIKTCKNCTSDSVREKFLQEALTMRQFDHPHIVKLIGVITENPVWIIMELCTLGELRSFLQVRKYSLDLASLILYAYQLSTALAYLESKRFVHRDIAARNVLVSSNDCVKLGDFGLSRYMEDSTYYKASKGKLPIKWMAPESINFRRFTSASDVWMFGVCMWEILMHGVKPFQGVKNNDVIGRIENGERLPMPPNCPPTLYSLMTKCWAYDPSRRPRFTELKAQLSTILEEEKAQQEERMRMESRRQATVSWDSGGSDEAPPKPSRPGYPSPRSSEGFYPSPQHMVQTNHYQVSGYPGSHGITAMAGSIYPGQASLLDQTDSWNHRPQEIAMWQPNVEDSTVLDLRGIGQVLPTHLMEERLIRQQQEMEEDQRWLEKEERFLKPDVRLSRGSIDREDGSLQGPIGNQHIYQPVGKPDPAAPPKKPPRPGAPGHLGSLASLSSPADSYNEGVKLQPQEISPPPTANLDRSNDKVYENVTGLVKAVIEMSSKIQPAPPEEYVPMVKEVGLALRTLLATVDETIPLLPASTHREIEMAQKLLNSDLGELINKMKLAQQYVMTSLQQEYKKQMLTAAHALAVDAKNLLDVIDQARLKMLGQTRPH

| SMILES | IC50 (Focal adhesion kinase 1) | IC50 (HUVEC) |
| --- | --- | --- |
| COc1cc(Nc2ncnc(Nc3ccccc3C(=O)NC3CC3)n2)cc(OC)c1OC | 6.1 µM | 5.9 µM |
| CCC(CC)NC(=O)c1ccccc1Nc1ncnc(Nc2cc(OC)c(OC)c(OC)c2)n1 | 6 µM | 5.3 µM |
| COc1cc(Nc2ncnc(Nc3ccccc3C(=O)NC3CCCC3)n2)cc(OC)c1OC | 5.2 µM | 3.9 µM |
| COc1cc(Nc2ncnc(Nc3ccccc3C(=O)NCCO)n2)cc(OC)c1OC | 23.8 µM | 17.5 µM |
| COc1cc(Nc2ncnc(Nc3ccccc3C(=O)NCCN(C)C)n2)cc(OC)c1OC | 10.2 µM | 9.4 µM |
| COC(=O)c1ccccc1Nc1ncnc(Nc2cc(OC)c(OC)c(OC)c2)n1 | 17.9 µM | 23.2 µM |
| COc1ccc(Nc2ncnc(Nc3ccccc3NS(C)(=O)=O)n2)c(OC)c1 | 6.1 µM | 2.7 µM |
| COc1ccc(Nc2ncnc(Nc3ccccc3NC(C)=O)n2)c(OC)c1 | 21.1 µM | 11.2 µM |
| CNC(=O)c1ccccc1Nc1ncnc(Nc2ccc(N3CCOCC3)cc2OC)n1 |  | 1.5 µM |
| COc1cc(Nc2nc(Cl)nc(Nc3ccccc3NS(C)(=O)=O)n2)cc(OC)c1OC | 41.9 µM | 9.5 µM |
| COc1cc(Nc2ncnc(Nc3ccccc3NS(C)(=O)=O)n2)cc(OC)c1OC | 5.1 µM | 6.1 µM |
| CNc1nc(Nc2cc(OC)c(OC)c(OC)c2)nc(Nc2ccccc2NS(C)(=O)=O)n1 | 65.9 µM | 34.2 µM |
| COc1cc(Nc2nc(Cl)nc(Nc3cccc(NS(C)(=O)=O)c3)n2)cc(OC)c1OC | 57.8 µM | 13.3 µM |
| COc1cc(Nc2ncnc(Nc3cccc(NS(C)(=O)=O)c3)n2)cc(OC)c1OC | 9.2 µM | 7.2 µM |
| CNc1nc(Nc2cccc(NS(C)(=O)=O)c2)nc(Nc2cc(OC)c(OC)c(OC)c2)n1 | 41.3 µM | 10 µM |
| COc1cc(Nc2nc(C)nc(Nc3ccccc3NS(C)(=O)=O)n2)cc(OC)c1OC | 7.9 µM | 8.5 µM |
| COc1cc(Nc2nc(C)nc(Nc3ccccc3NC(C)=O)n2)cc(OC)c1OC | 50.8 µM | 18.8 µM |
| COC(=O)Nc1ccccc1Nc1nc(C)nc(Nc2cc(OC)c(OC)c(OC)c2)n1 | 35.9 µM | 15.8 µM |
| COc1cc(Nc2nc(C)nc(Nc3ccccc3NC(=O)N(C)C)n2)cc(OC)c1OC | 54.3 µM | 27.3 µM |
| COc1cc(Nc2nc(Nc3ccccc3NC(C)=O)nc(C(F)(F)F)n2)cc(OC)c1OC | 126 µM | 33.3 µM |
| CNC(=O)c1ccccc1Nc1nc(Nc2ccc(N3CCOCC3)cc2OC)ncc1Cl |  | 1 µM |

The remaining molecules from weak to strong by IC50 (Focal adhesion kinase 1), led by results:

| IC50 (Focal adhesion kinase 1) | SMILES | IC50 (HUVEC) |
| --- | --- | --- |
| 2.3 µM | CS(=O)(=O)Nc1ccccc1Nc1ncnc(Nc2ccc(CN)cc2)n1 | 3.9 µM |
| 2.2 µM | COc1cc(Nc2ncnc(Nc3ccccc3C(=O)NC(C)C)n2)cc(OC)c1OC | 4 µM |
| 1.9 µM | CCC(CC)NC(=O)c1ccccc1Nc1ncnc(Nc2ccc(CN)cc2)n1 | 1.4 µM |
| 1.5 µM | CNC(=O)c1ccccc1Nc1ncnc(Nc2ccc(OC)cc2OC)n1 | 6.5 µM |
| 1 µM | CC(C)NC(=O)c1ccccc1Nc1ncnc(Nc2ccc(CN)cc2)n1 | 3.2 µM |
| 0.44 µM | CCNC(=O)c1ccccc1Nc1ncnc(Nc2ccc(CN)cc2)n1 | 2.8 µM |
| 0.4 µM | CNC(=O)c1ccccc1Nc1ncnc(Nc2cc(OC)c(OC)c(OC)c2)n1 | 2.5 µM |
| 0.3 µM | CNC(=O)c1ccccc1Nc1ncnc(Nc2cc(CCC(N)=O)c(OC)c(OC)c2)n1 | 1.3 µM |
| 0.16 µM | CNC(=O)c1ccccc1Nc1ncnc(Nc2ccc(CN)cc2)n1 | 2.1 µM |
